Entries after “also recorded” stand apart in the source; their conditions may differ.
How the values were obtained:
[1] = system: rat (immobility in forced swim test); assay: Forced swim test (behavioral despair assay); assay type: in vivo
Description: The objective of this study was to assess the antidepressant effects of test compounds in the behaviral despair assay in rats using a modification of a method described by Porsolt R. D. et al. in Behavioral despair in rats: a new model sensitive to antidepressant treatment, Eur. J. Pharmacol., 47: 379-391, 1978; Porsolt et al., Nature 266: 730-732, 1977; and Porsolt et al., in Psychopharmacology, Olivier, Mos, and Slangen (eds) Birkhauser Verlag, Basel, pp. 137-159, 1991. Briefly, when mice (or rats) are forced to swim in a cylinder from which no escape is possible, they readily adopt a characteristic immobile posture and make no further attempts to escape except for small movements needed to keep floating. The immobility is considered by some to reflect a “depressive mood” (Porsolt et al., Nature 266: 730-732, 1977) in which animals cease to struggle to escape the aversive situation. The immobility induced by the procedure is influenced by a wide variety of antidepressants (Porsolt et al., in Psychopharmacology, Olivier, Mos, and Slangen (eds). Birkhauser. Verlag, Basel, pp. 137-159, 1991) and has a good predictive validity in that it detects antidepressants with different mechanisms of action (TCAs, SSRIs, MAOIs, and other atypical ones). The test is sensitive to muscle-relaxant (benzodiazepines) and sedative (neuroleptics) effects, leading to enhanced immobility (Porsolt et al., supra).
In a typical experiment, animals are placed singly into a cylinder (e.g. 46×30 cm) containing fresh water at about 20° C. for 6 minutes. The activity (or immobility) of the animal is measured by an observer minute by minute. In more detail, the animals were preconditioned in a pretest session, where the rats were individually forced to swim inside a vertical plexiglass cylinder containing water maintained at 19-20° C. After 15 minutes in the water, they were allowed to dry for 15 minutes in a heated enclosure. Twenty four hours later, the compounds were administered either intraperitoneally or orally to the animals. One hour after administration of the test compound, animals were put back into the cylinder containing water. The total duration of immobility was measured during the last 4 minutes of a 6 minute test.
The results are expressed as the percentage of variation of the total duration of immobility calculated from the mean value of the vehicle-treated group (% variation=[(immobility duration of vehicle−immobility duration of test compound)/(immobility duration of vehicle)]×100%). Only compounds which exibit a statistically significant variation (e.g. >30%) are considered effective in this in vivo model.
Sibutramine (2.0 and 2.5 mg/kg), Bupropion (7.5 and 10 mg/kg), and Imipramine (30 mg/kg) were similarly administered as controls. […] Asterisks indicate highly statistical significant results.
A fourth DAT inhibitor, CNS-28,002 was administered p.o. as a racemic mixture of diastereomers at either 35 or 75 mg/kg. Sibutramine (5.0 and 3.75 mg/kg), Bupropion (30 and 40 mg/kg), and Imipramine (100 mg/kg) were similarly administered as controls.
Sibutramine (5.0 and 3.75 mg/kg), Bupropion (30 and 40 mg/kg), and Imipramine (100 mg/kg) were similarly administered as controls.

[2] = system: rat; assay: Acute single-dose toxicology (maximum tolerated dose); assay type: in vivo; details: for observed toxicological effects: rat (n = 5), i.v., observed for 72 hours
Protocol: An in vivo evaluation was carried out to determine the maximum tolerated dose of numerous test compounds in rat. The compounds were administered i.v., and the animals were then observed for 72 hours.
Briefly, experimental rats, in groups of 5 animals, were administered with various doses of respective DAT inhibitors (e.g. 30, 90, 120, and 200 mg/kg), and the observed toxicological effects were recorded.

[3] = molecular target: NET (Rattus norvegicus, UniProt Q63380); assay: Functional uptake profile, rat NET; assay type: cell-based
NET (Rattus norvegicus, UniProt Q63380), sequence (Q63380 1-617): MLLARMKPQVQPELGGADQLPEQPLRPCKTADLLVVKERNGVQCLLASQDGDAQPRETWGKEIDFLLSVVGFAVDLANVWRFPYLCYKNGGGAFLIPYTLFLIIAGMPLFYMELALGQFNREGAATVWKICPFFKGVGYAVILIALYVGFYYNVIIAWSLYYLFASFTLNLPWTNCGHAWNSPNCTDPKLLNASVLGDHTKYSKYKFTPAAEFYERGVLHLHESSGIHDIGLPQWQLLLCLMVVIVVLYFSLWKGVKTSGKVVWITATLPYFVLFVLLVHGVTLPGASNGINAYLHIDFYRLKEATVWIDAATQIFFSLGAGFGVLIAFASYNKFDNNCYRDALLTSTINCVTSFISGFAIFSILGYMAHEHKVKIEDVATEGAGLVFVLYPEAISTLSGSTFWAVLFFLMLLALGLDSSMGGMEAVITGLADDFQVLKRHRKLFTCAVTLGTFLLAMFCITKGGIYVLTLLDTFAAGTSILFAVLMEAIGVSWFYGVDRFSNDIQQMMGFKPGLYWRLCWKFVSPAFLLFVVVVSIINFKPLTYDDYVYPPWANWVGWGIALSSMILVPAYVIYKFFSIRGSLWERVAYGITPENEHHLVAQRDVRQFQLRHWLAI

[4] = molecular target: T1, DAT (Homo sapiens, UniProt Q01959); assay type: cell-based; details: functional uptake
T1 construct: expressed in transfected cells
T1 sequence (Q01959 whole entry): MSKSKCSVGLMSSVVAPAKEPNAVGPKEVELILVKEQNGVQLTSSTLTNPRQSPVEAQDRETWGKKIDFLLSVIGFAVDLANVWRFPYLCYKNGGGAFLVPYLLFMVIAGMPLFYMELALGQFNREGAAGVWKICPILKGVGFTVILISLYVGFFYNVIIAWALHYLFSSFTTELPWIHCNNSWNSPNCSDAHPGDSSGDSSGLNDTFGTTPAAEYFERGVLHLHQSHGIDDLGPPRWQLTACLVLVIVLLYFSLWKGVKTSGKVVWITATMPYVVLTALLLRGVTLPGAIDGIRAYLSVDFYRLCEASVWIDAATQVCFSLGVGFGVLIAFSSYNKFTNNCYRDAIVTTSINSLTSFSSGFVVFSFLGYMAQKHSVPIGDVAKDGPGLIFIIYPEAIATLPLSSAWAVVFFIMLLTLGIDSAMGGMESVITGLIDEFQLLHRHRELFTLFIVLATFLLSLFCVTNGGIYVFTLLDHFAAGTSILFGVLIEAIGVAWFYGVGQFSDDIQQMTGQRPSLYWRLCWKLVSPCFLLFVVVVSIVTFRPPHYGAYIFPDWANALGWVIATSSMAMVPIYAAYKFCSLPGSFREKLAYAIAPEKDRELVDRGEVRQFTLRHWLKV
Protocol: (§1) Functional activity of the compounds was determined in vitro in cellular assays using recombinant human cell lines.

[5] = molecular target: T2, 5-HT (serotonine uptake) (Homo sapiens, UniProt P31645); assay type: cell-based; details: functional uptake
T2 construct: expressed in transfected cells; host or cells: HEK-293
T2 sequence (P31645 whole entry): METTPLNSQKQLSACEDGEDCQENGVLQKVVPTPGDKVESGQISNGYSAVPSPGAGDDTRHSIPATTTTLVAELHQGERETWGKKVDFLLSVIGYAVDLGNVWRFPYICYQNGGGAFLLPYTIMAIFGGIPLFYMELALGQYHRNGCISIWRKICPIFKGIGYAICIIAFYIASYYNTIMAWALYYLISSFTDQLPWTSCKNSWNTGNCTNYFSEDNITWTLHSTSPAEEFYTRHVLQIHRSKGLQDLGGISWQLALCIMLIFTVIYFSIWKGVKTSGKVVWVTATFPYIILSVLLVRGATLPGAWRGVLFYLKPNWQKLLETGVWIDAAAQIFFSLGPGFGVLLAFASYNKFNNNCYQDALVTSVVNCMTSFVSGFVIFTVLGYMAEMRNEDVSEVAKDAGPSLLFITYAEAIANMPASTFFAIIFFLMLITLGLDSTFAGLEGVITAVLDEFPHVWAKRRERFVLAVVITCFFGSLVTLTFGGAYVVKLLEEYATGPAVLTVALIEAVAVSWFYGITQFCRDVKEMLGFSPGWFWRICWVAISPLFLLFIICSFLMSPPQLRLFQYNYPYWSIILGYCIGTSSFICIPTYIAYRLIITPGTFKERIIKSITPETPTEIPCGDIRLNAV
Protocol: as §1

[6] = molecular target: T3, NET (Homo sapiens, UniProt P23975); assay: Functional norephinephrine uptake inhibition, MDCK cell line; assay type: cell-based
T3 construct: expressed in transfected cells; host or cells: MDCK
T3 sequence (P23975 whole entry): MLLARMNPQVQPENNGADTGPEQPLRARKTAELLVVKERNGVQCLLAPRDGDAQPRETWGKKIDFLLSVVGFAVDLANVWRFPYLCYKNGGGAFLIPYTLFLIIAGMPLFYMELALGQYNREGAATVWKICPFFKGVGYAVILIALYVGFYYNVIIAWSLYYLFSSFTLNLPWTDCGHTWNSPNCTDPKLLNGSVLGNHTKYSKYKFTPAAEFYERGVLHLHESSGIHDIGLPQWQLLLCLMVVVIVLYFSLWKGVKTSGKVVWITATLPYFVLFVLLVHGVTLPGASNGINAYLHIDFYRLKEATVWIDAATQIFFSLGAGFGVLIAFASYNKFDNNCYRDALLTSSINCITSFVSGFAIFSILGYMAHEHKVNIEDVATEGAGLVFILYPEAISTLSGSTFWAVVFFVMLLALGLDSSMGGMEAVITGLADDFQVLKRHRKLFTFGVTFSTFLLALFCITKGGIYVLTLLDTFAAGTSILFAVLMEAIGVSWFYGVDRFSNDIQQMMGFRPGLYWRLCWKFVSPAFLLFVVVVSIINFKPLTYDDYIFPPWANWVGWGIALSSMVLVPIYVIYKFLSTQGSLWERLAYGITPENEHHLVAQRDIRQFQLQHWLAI
Protocol: as §1

[7] = system: Sprague-Dawley rats; assay: 7-day multidose oral dosing toxicology study; details: 7 days; for observed symptoms: Sprague-Dawley rats (n = 6; 3M/3F), oral
Protocol: The oral doses tested are 50 mg/kg/day, 100 mg/kg/day, 200 mg/kg/day, and 400 mg/kg/day.

[8] = i.p., e.g. 7.5 and 15 mg/kg, racemic mixtures of diastereomers, FIG. 2
[9] = p.o., 35 or 75 mg/kg, FIG. 3 and FIG. 4
[10] = single dose 200 mg/kg, 200 mg/kg

CC1CCN(CC2(c3ccc(Cl)cc3)CCC2)CC1COc1ccc(C(F)(F)F)cc1 (centres unmarked) [CNS-27,100] was tested, and the “in vivo efficacy in forced swim test compared with commercial drugs” value [1, 8] was “performed equally well, if not better, than the commercial drugs Sibutramine, Bupropion, and Imipramine”, the “in vivo efficacy in forced swim test compared with commercial drugs” value [1, 9] was “performed equally well, if not better, than the commercial drugs Sibutramine, Bupropion, and Imipramine” and the observed toxicological effects [2, 10] was “decreased grip strength, and slight depression”. For the same compound, the “doses tolerated well with no significant observed symptoms” value ([2]; rat, single dose) was “below 120 mg/kg” and the EC50 [3] was 1000 nM.

In the case of CC1C(COc2ccc(C(F)(F)F)cc2)CCCN1CC(O)C1(c2ccc(Cl)cc2)CCC1 (centres unmarked) [CNS-28,002], the “in vivo efficacy in forced swim test compared with commercial drugs” value [1, 9] is reported as “performed equally well, if not better, than the commercial drugs Sibutramine, Bupropion, and Imipramine” and the observed toxicological effects [2, 10] is reported as “no observed symptoms”.

CC1CCC(COc2ccc(C(F)(F)F)cc2)CN1CC1(c2ccc(Cl)cc2)CCC1 (centres unmarked) [CNS-28,100] was tested, and the “in vivo efficacy in forced swim test compared with commercial drugs” value [1, 8] was “performed equally well, if not better, than the commercial drugs Sibutramine, Bupropion, and Imipramine” and the EC50 [3] was 300 nM.

For CC1CCC(COc2ccc(C(F)(F)F)cc2)CN1CC(O)C1(c2ccc(Cl)cc2)CCC1 (centres unmarked) [CNS-28,200], the “in vivo efficacy in forced swim test compared with commercial drugs” value [1, 8] was “performed equally well, if not better, than the commercial drugs Sibutramine, Bupropion, and Imipramine”, the observed toxicological effects ([2]; single dose 120 mg/kg, 120 mg/kg) was “decreased grip strength and limb tone and convulsions” and the observed toxicological effects [2, 10] was “Convulsions”. For the same compound, the “toxic dose relative to the effective dose shown in FIG. 2” value ([2]; rat, dose with convulsions vs forced swim test effective dose) was “about 10 times”.

Work on CC(C)C[C@@H](N)C1(c2ccc(Cl)cc2)CCC1 [R-DDMS] yielded an EC50 [4] of 100 nM, an EC50 [5] of 1500 nM and an EC50 [6] of 200 nM.

Work on CN[C@H](CC(C)C)C1(c2ccc(Cl)cc2)CCC1 [R-DMS] yielded an EC50 [4] of 30 nM, an EC50 [5] of 1500 nM and an EC50 [6] of 300 nM.

With CC(C)CC(N(C)C)C1(c2ccc(Cl)cc2)CCC1 (centres unmarked) [Sibutramine] the observed symptoms ([7]; 100 mg/kg/day) was “decreased grip strength, depression”, the observed symptoms ([7]; 400 mg/kg/day) was “convulsions; also recorded: Convulsions;” and the “deaths (number of animals)” value ([7]; n = 6, oral, 200 mg/kg/day) was 2 deaths. For the same compound, the “self mutilation (number of animals)” value ([7]; n = 6, oral, 200 mg/kg/day) was 6 self mutilation.

— patent US8258305B2, “Dopamine transporter inhibitors for use in treatment of movement disorders and other CNS indications” (Prexa Pharmaceuticals, Inc., priority 2005, dated 2012)
